By Kd is commonly meant a measure of binding affinity in units of concentration. High values mean weaker binding, low ones tighter binding. For orientation: koff means the rate constant with which the complex falls apart. Usually kon stands for the rate constant with which the complex forms. One may read the residence time as how long the partners stay bound on average. The EC50 is the concentration giving half of the maximal effect.

One assay addresses T1, FEN1(1-380)-6His (Homo sapiens, UniProt P39748).
T1 construct: FEN1(1-380)-6His was immobilized on a CM5 chip; made in house; host or cells: Escherichia coli
Kind of assay: Surface plasmon resonance on immobilized FEN1. It counts as binding. To be noted: SPR, 25°C, mean of n = 4 surfaces; for Kd: 1:1 Langmuir model; for residence time: read-out: τ (residence time). The protocol:
The kinetic parameters of the interaction between FEN1 and small molecules were assessed by surface plasmon resonance (SPR). FEN1(1-380)-6His was immobilized on a CM5 chip (Series S, Cytiva, Uppsala, Sweden) via standard amine coupling procedure at 25°C. Prior to immobilization, the carboxymethylated surface of the CM5 chip was activated with 400 mM 1-ethyl-3-(3-dimethylaminopropyl)-carbodiimide and 100 mM N-hydroxysuccinimide for 7 min. FEN1 was diluted to 10 µg/ml in 10 mM Bis–Tris pH 6.50 and injected in the presence of 2 µM of an active site binder on the CM5 chip for 3 or 4 min resulting in immobilization levels between 1300 and 3100 response units (RU). The remaining activated carboxymethylated groups were blocked with a 7 min injection of 1 M ethanolamine pH 8.50. HBS-N pH 7.40 was used as the background buffer during immobilization.
All compounds were prediluted in DMSO, diluted 1:50 in running buffer (20 mM Tris–HCl pH 7.50, 100 mM KCl, 1 mM DTT, 5 mM MgCl2, 0.05% Tween-20, and 2% DMSO) and injected at 10 different concentrations using two-fold dilution series. A DMSO solvent correction (10 steps, 1.4%–2.8%) was performed to account for variations in bulk signal and to achieve high-quality data. Interaction analysis cycles consisted of a 150 s sample injection (30 μl/min; association phase) followed by 300 s of buffer flow (dissociation phase).
Experiments were performed on a Biacore 8K+ (Cytiva, Uppsala, Sweden) at 25°C and the interactions were evaluated using the Biacore Insight evaluation software (version 5.0). All sensorgrams were processed by first subtracting the signal of the control surface (reference spot) from the binding response, followed by subtraction of the buffer blank injection from the reaction spot (double referencing). All datasets were fitted to a simple 1:1 Langmuir interaction model to determine the kinetic rate constants (using as offset RI = const = 0 and for Rmax either global or local, if the surface generation was not complete between consecutive cycles). Reported kinetic parameters are mean values from four independent FEN1 surfaces (n = 4).
In general terms: In SPR one partner is held on a chip, and binding of the other changes the refractive index at the surface.

A further assay has as its system DLD-1 BRCA2KO cells. Kind of assay: Cell viability assay (AlamarBlue), 7 days. It counts as cell-based. As for the experimental part:
Cells were seeded in 96-well plates and treated the day after seeding with a serial dilution of compounds in technical duplicates. After 7 days, viability was analyzed using the AlamarBlue reagent (BioRad). AlamarBlue was added in an amount equal to 10% of the volume in the well and after a 4–6 h incubation viability was determined by fluorescence analysis using a standard plate reader. Fluorescence was normalized to vehicle treated control for each cell line, and data were fitted in Genedata Screener to generate compound sensitivity curves and determine IC50 or EC50 (half maximal inhibitory/effective concentration) values as indicated.

The subject of assay [1] is FEN1 chromatin enrichment in HeLa cells. Kind of assay: Chromatin retention assay (immunofluorescence, CSK-extracted cells). It is filed as cell-based. To be noted: 24 h treatment. As for the experimental part: HeLa cells were seeded at a density of 4000 cells per well in 100 μl of media in collagen-coated 96-well plates (Revvity, #6055700). Sixteen to twenty-four hours after seeding, compounds were dispensed using the D300e digital dispenser (Tecan) to generate a multipoint dose–response curve, equalized to final DMSO concentration. After 24 h, cells were washed with phosphate buffered saline (PBS) and pre-extracted with 50 μl of ice-cold cytoskeletal (CSK) buffer [10 mM PIPES pH 6.8 (Sigma–Aldrich, P8203-50G), 100 mM NaCl (VWR, 27810.295), 300 mM sucrose (Sigma–Aldrich, S0389-500G), 1.5 mM MgCl2 (VWR, 8760.29), 5 mM EDTA (Sigma–Aldrich, E7889-100ML), 0.4% Triton […] (Sigma–Aldrich, T9285-500ML)], for 4 min on ice. Cells were then washed with PBS and fixed in 4% paraformaldehyde (PFA) (ChemCruz, sc-281692) for 10 min at room temperature.
For immunofluorescence staining, cells were washed with PBS then blocked and permeabilized with PBS containing 0.5% bovine serum albumin (BSA) and 0.5% Triton X-100 (blocking buffer) for 1 h at room temperature. Cells were then stained with the indicated markers (FEN1 or PARP1) by incubation with primary antibodies (Supplementary Table S5) diluted in blocking buffer, at room temperature for 4 h (FEN1) or overnight at 4°C (PARP1). […]

The test system of assay [2] is MMEJ (resection independent reporter). Description: Extrachromosomal MMEJ reporter assay, resection independent, HEK-293. It is filed as cell-based. The protocol:
MMEJ resection-independent and MMEJ resection-dependent reporter assays performed as previously described. In brief, HEK-293 cells were resuspended in supplemented SF nucleofection solution (Lonza) containing nanoluciferase DNA substrate and Firefly luciferase plasmid (Promega) at a ratio of 100 μl SF: 1500 ng nanoluciferase substrate: 1000 ng Firefly plasmid: ∼1.5 × 10^6 cells. Cells were electroporated and recovered into fresh media before seeding into a 96-well plate pre-dosed with compounds and DMSO control.
After 24 h, Firefly and NanoLuc levels were detected using the Nano-Glo® Dual-Luciferase® Reporter Assay system (Promega) as per the manufacturer’s instructions. NanoLuc luminescence (reporter) was normalized to Firefly luminescence (control) to determine substrate repair. Percentage repair was calculated relative to the DMSO control.
(In general: In a reporter assay the amount or activity of a reporter protein is the signal.)

T1 sequence (P39748 whole entry): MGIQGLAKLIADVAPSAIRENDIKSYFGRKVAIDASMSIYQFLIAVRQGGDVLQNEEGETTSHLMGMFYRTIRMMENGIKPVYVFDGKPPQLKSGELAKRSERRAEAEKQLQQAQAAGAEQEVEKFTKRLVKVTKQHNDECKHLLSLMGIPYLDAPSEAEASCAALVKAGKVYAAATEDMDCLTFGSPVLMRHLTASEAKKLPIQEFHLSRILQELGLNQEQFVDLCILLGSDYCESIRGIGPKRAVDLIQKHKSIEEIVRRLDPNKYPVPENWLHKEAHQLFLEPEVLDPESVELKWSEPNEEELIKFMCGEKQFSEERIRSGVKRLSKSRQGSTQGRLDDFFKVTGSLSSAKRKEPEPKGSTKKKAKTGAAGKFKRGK

Regarding `C[C@H](Oc1nn2c(c(O)c1=O)C(=O)N1CCOC[C@@H]1C2)c1ccc2ccc(Cl)cc2c1` [MSC778], on FEN1(1-380)-6His, the Kd was found to be 2.9 nM, the koff turned out to be 0.00052 s⁻¹, the kon came out at 180000 M⁻¹ s⁻¹ and the residence time is 32 min. In addition, in the assay with DLD-1 BRCA2KO cells (Homo sapiens, 168 h, DLD-1 BRCA2KO, 7 days, AlamarBlue, N = 3), a half-maximal effect (EC50) was put at 220 nM. Further, the “Sensitivity of DLD-1 BRCA2KO relative to parental DLD-1 cells” value in the assay with DLD-1 BRCA2KO cells (more sensitive than isogenic DLD-1 wild-type) is listed as ~10 fold. Further, the EC50 in assay [1] (Homo sapiens, unchallenged HeLa cells) worked out at 1200 nM. In assay [2] (Homo sapiens, HEK293, resection independent reporter, HEK-293, 24 h, read-out: MMEJ inhibition EC50), the EC50 is 1000 nM. For the same compound, in assay [2] (lower potency than ART558, both reporters), the “MMEJ potency relative to ART558” value is 10–20 fold.
In the case of `C[C@@H](Oc1nn2c(c(O)c1=O)C(=O)N1CCOC[C@@H]1C2)c1ccc2ccc(Cl)cc2c1` [MSC781], on FEN1(1-380)-6His, the Kd was 23 nM, the koff was 0.0034 s⁻¹, the kon was determined as 150000 M⁻¹ s⁻¹ and the residence time stood at 4.8 min. Moreover, the “Sensitivity of cell lines (viability)” value with DLD-1 BRCA2KO cells (DLD-1 and DLD-1 BRCA2KO, 7 days, AlamarBlue, compared with MSC778) was “much less sensitive”. The “Chromatin enrichment (of either FEN1 or PARP1) and DNA damage signalling” value in assay [1] (HeLa cells) is reported as “not enhanced”. For the same compound, in assay [2] (both reporters, HEK-293), the “Inhibited MMEJ” value is reported as “not”.

The record behind these values is publication PMC12684391, “Mechanistic insights into the monotherapy and combination potential of FEN1 inhibition in cancer therapy” (Nucleic Acids Research, 2025).
